Test results: publication PMC11768359, “2-Aminothiophene Derivatives—New Drug Candidates Against Leishmaniasis: Drug Design, Synthesis, Pharmacomodulation, and Antileishmanial Activity” (Pharmaceuticals, 2025)
pEC50, pIC50: −log10 of the molar value. Several values for one entry are separate records, joined by “and”; a condition that tells them apart may be missing. Equal entries are not always repeated. Where two headings read alike, the source gives them in different places.

What was measured:
[1] = system: promastigotes of L. amazonensis; test: Growth inhibition of promastigote forms of L. amazonensis (MTT); type: cell-based, Leishmania amazonensis; settings: 72 h, 26 °C
Experimental: (§1) The in vitro tests utilized Leishmania amazonensis parasites (IFLA/BR/67/PH8). These leishmania cell lines were obtained from Oswaldo Cruz Foundation (FIOCRUZ)/Brazil. The promastigote forms were cultivated in Schneider’s insect medium at 26 °C in a biological oxygen demand (BOD) incubator. Schneider’s insect medium was supplemented with 20% fetal bovine serum (FBS) and 1% penicillin (100 U/mL) and streptomycin (µg/mL) (complete Schneider). Next, we differentiated them from promastigote forms by changing the conditions to Schneider’s insect medium supplemented with 5% FBS, pH 4.6, and a temperature of 32 °C to obtain axenic amastigote forms of L. amazonensis. Meanwhile, RAW 264.7 macrophages were cultured in […] cell culture flasks using DMEM medium supplemented with 10% FBS, 1% penicillin 100 U/mL, and 100 μg/mL streptomycin (complete DMEM) and incubated at 37 °C and 5% CO2.
Parasite growth inhibition was evaluated using the methodology described by Rodrigues et al. (2015). Cultures of logarithmically growing promastigote and axenic amastigote forms (1 × 10^6 parasites/mL) were incubated in 96-well plates containing 100 µL of supplemented Schneider’s medium in triplicate. Serial concentrations of 2-amino-thiophene and 2-amino-selenophene derivatives (10.00–0.156 μM) and the reference drugs meglumine antimoniate (500–40,000 μg/mL), amphoterecinB (0.1–2 μM), and pentamidine (3.12–100 µM) were added. BNP was used as a negative control. The cultures were incubated in a biological oxygen demand oven (model Eletrolab EL202, São Paulo, Brazil) at 26 °C for promastigotes and 32 °C for axenic amastigotes for 72 h. Then, 10 μL of MTT (5 mg/mL) was added to each well to colorimetrically evaluate growth inhibition. The plate was subsequently incubated for a further 4 h, followed by adding 50 μL of 10% sodium dodecyl sulfate solution for […] before the optical density of the culture was read on a microplate spectrophotometer reader. The reading was taken at the test and reference wavelengths of 540 and 620 nm using a microplate spectrophotometer. The negative control consisted of 0.2% […] with BNP, considered to be 100% viable.

RAW 264.7 macrophages = test: Cytotoxicity in macrophages (MTT); type: cell-based; settings: 48 h
Experimental: as §1
First, 100 μL DMEM medium complete with 1 × 10^6 macrophages (RAW 264.7) was added to each well of a 96-well plate. RAW 264.7 macrophages were obtain from ATCC: code TIB-71^TM. The plate was placed in an incubator (37 °C, 5% CO2) (Sanyo, model COM-15A, Sanyo Electric Co., Osaka, Japan) for 4 h to promote cell adhesion. After this period, two washes were conducted with previously heated DMEM medium (37 °C) to remove non-adhered cells. 2-amino-thiophene and 2-amino-selenophene derivatives were added to wells at serial concentrations of 400 to 25 µM and then incubated for 48 h. Next, 10 μL of MTT at a […] of 5 mg/mL were added to each well and incubated for 4 h. The plate was then shaken for 30 min and read at the test and reference wavelengths of 550 and 620 nm, respectively, in a plate reader. DMEM medium supplemented with 0.5% DMSO was used as a negative control and considered as 100% macrophage viability. The selectivity index for each treatment was calculated as the ratio between the concentration of cytotoxicity of RAW 264.7 macrophages (CC50) and the 50% inhibitory concentration (IC50) or effective concentration (EC50), as measured for the different evolutionary forms of L. amazonensis.

[2] = system: promastigotes of L. amazonensis; settings: L. amazonensis promastigotes; previously published; read-out: IC50 Promastigotes; cited from earlier work
L. amazonensis = settings: Swiss mice, oral, 50 and 200 mg/kg, 7 weeks; versus meglumine antimoniate i.p. 100 mg/kg; cited from earlier work
[3] = system: axenic amastigotes of L. amazonensis; settings: L. amazonensis amastigotes, cited from earlier work

Structure (SMILES)	pIC50 [1]	pIC50 ([1]; listed as Anfotericina B)	CC50 (RAW 264.7 macrophages)	CC50 (RAW 264.7 macrophages; listed as Anfotericina B)	pIC50 [2]	paw lesion size and parasite load in the reservoirs (L. amazonensis)	pIC50 ([3]; previously published, read-out: IC50 Amastigotes)	pEC50 ([3]; read-out: EC50 against amastigotes)
C[C@@H]1[C@H](O)[C@@H](C)/C=C/C=C/C=C/C=C/C=C/C=C/C=C/[C@H](O[C@@H]2O[C@H](C)[C@@H](O)[C@H](N)[C@@H]2O)C[C@@H]2O[C@](O)(C[C@@H](O)C[C@@H](O)[C@H](O)CC[C@@H](O)C[C@@H](O)CC(=O)O[C@H]1C)C[C@H](O)[C@H]2C(=O)O [Amphotericin B, reference compound]	6.77 and 6.52	6.44	180 nM and 300 nM	380 nM				
N#Cc1c(/N=C/c2c[nH]c3ccc(Br)cc23)sc2c1CCCC2 [SB-83]					5.48 and 5.47	more effective than meglumine antimoniate	4.73	4.73
